# Like-named read-outs stand apart in the source and are kept apart here.
# Columns and labels:
# [1] = system: HBV rcDNA in HepDE19 cells; assay: HepDE19 cell culture system, rcDNA quantitation using bDNA assay, MacSynergy II; type: cell-based, human hepatoma cell line; conditions: for AVERAGE % INHIBITION: GLS-4 0 μM; for EC50: Hepatitis B virus
# Experimental: In vitro combination studies were conducted using the method of Prichard and Shipman (Prichard M N, and Shipman C Jr., Antiviral Research, 1990, 14 (4-5), 181-205; and Prichard M N, et. al., MacSynergy II). HepDE19 cell culture system is a HepG2 (human hepatocarcinoma) derived cell line that supports HBV DNA replication and cccDNA formation in a tetracycline (Tet)-regulated manner and produces HBV rcDNA and a detectable reporter molecule dependent on the production and maintenance of cccDNA (Guo et al 2007. J. Virol 81:12472-12484). HepDE19 (50,000 cells/well) were plated in 96 well collagen-coated tissue-culture treated microtiter plates in DMEM/F12 medium supplemented with 10% fetal bovine serum, 1% penicillin-streptomycin and 1 μg/ml tetracycline and incubated in a humidified incubator at 37° C. and 5% CO2 overnight. Next day, the cells were switched to fresh medium without tetracycline and incubated for 4 hrs at 37° C. and 5% CO2. […] The two inhibitors were tested both singly as well as in combinations in a checkerboard fashion such that each concentration of inhibitor A was combined with each concentration of inhibitor B to determine their combination effects on inhibition of rcDNA production. Following a 7 day-incubation of cells with compound combinations, the level of rcDNA present in the inhibitor-treated wells was measured using a Quantigene 2.0 bDNA assay kit (Affymetrix, Santa Clara, Calif.) with HBV specific custom probe set and manufacturers instructions. […] The RLU data from the single compound treated cells were analyzed using XL-Fit module in Microsoft Excel to determine EC50 values using a 4-parameter curve fitting algorithm. Concurrently, the effect of compounds on cell viability was assessed using replicate plates, plated at a density of 5,000 cells/well and incubated for 4 days, to determine the ATP content as a measure of cell viability using the cell-titer glo reagent (CTG; Promega Corporation, Madison, Wis.) as per manufacturer's instructions.
# In vitro combination studies were conducted using the method of Prichard and Shipman (Prichard M N, Shipman C, Jr., Antiviral Res, 14, 181-205 (1990)). The HepDE19 cell line was developed as described in Guo et al. (Guo et al., J Virol, 81, 12472-12484 (2007)). It is a human hepatoma cell line stably transfected with the HBV genome, and which can express HBV pregenomic RNA and support HBV rcDNA (relaxed circular DNA) synthesis in a tetracycline-regulated manner. HepDE19 cells were plated in 96 well tissue-culture treated microtiter plates in DMEM/F12 medium supplemented with 10% fetal bovine serum+1% penicillin-streptomycin without tetracycline and incubated in a humidified incubator at 37° C. and 5% CO2 overnight. […] The two inhibitors were tested both singly as well as in combinations in a checkerboard fashion such that each concentration of inhibitor A was combined with each concentration of inhibitor B to determine their combination effects on inhibition of rcDNA production. Following a 48 hour-incubation, the level of rcDNA present in the inhibitor-treated wells was measured using a bDNA assay (Affymetrix) with HBV specific custom probe set and manufacturers instructions. […] Concurrently, the effect of inhibitor combinations on cell viability was assessed using replicate plates that were used to determine the ATP content as a measure of cell viability using the Cell-TiterGlo reagent (Promega) as per manufacturer's instructions.
# In vitro combination studies were conducted using the method of Prichard and Shipman (1990) (Prichard M N, Shipman C, Jr. 1990. A three-dimensional model to analyze drug-drug interactions. Antiviral Res 14:181-205 AND Prichard M N. 1992. MacSynergy II, University of Michigan).
# [2] = system: D type HBV in primary human hepatocytes (HBsAg); assay: microbe, parasite or virus in culture; type: cell-based; conditions: Hepatitis B virus, Hepatocyte
# Outline: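 PHHs isolated by liver perfusion and Percoll, infected with genotype D HBV on day 1; compounds added day 2 and refreshed every other day. Supernatant HBsAg on day 8 by ELISA, % inhibition vs DMSO control. Seven 3-fold concentrations in triplicate; combinations as 5×5 matrix.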
# [3] = system: D type HBV in primary human hepatocytes (HBeAg); assay: microbe, parasite or virus in culture; type: cell-based; conditions: Hepatitis B virus, Hepatocyte
# Outline: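 Primary hepatocytes isolated by liver perfusion and Percoll-purified were infected with genotype D HBV one day post-seeding. Compounds were added on day 2 (7 concentrations, 3-fold dilutions, triplicate), with medium refreshed every other day. Day-8 supernatant HBeAg was measured by ELISA and expressed as % inhibition versus DMSO control.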
# [4] = 456 h, read-out: Inhibitor B EC50
smiles,measurement,setting,value
CC[C@@H](C)NS(=O)(=O)c1ccc(F)c(C(=O)Nc2ccc(F)c(F)c2)c1 [Compound 3],AVERAGE % INHIBITION,[1]; COMPOUND 3 0.040 μM,11.14%
same,AVERAGE % INHIBITION,[1]; COMPOUND 3 0.110 μM,19.99%
same,AVERAGE % INHIBITION,[1]; COMPOUND 3 0.330 μM,56.68%
same,AVERAGE % INHIBITION,[1]; COMPOUND 3 1.000 μM,86.87%
same,AVERAGE % INHIBITION,[1]; COMPOUND 3 3.000 μM,94.49%
same,EC50,"[1]; HepDE19, rcDNA, bDNA assay, DE19 cells, read-out: Inhibitor A EC50",0.272 µM
same,EC50,"[1]; HepDE19, rcDNA by bDNA assay, single agent, read-out: INHIBITOR A EC50",0.454 µM
same,EC50,[2]; [4],7.79 µM
same,EC50,"[2]; 576 h, read-out: Inhibitor B EC50 HBsAg",7.79 µM
same,inhibition at 0.06173 µM,"[2]; read-out: AVERAGE % INHIBITION HBsAg, COMPOUND 3 61.73 nM alone (Table 19b)",-20%
same,inhibition at 0.06864 µM,"[2]; read-out: AVERAGE % INHIBITION HBsAg, COMPOUND 3 68.64 nM alone (Table 20b)",-16.4%
same,inhibition at 0.18519 µM,"[2]; read-out: AVERAGE % INHIBITION HBsAg, COMPOUND 3 185.19 nM alone (Table 19b)",-17.3%
same,inhibition at 0.20593 µM,"[2]; read-out: AVERAGE % INHIBITION HBsAg, COMPOUND 3 205.93 nM alone (Table 20b)",-21.6%
same,inhibition at 0.55556 µM,"[2]; read-out: AVERAGE % INHIBITION HBsAg, COMPOUND 3 555.56 nM alone (Table 19b)",-14%
same,inhibition at 0.61778 µM,"[2]; read-out: AVERAGE % INHIBITION HBsAg, COMPOUND 3 617.78 nM alone (Table 20b)",-5.12%
same,inhibition at 1.66667 µM,"[2]; read-out: AVERAGE % INHIBITION HBsAg, COMPOUND 3 1666.67 nM alone (Table 19b)",1.44%
same,inhibition at 1.85333 µM,"[2]; read-out: AVERAGE % INHIBITION HBsAg, COMPOUND 3 1853.33 nM alone (Table 20b)",14.6%
same,inhibition at 5 µM,"[2]; read-out: AVERAGE % INHIBITION HBsAg, COMPOUND 3 5000.00 nM alone (Table 19b)",28.2%
same,inhibition at 5.56 µM,"[2]; read-out: AVERAGE % INHIBITION HBsAg, COMPOUND 3 5560.00 nM alone (Table 20b)",43.8%
same,inhibition at 61.73 µM,"[2]; read-out: AVERAGE % INHIBITION HBsAg, COMPOUND 3 61.73 μM alone",-5.49%
same,inhibition at 185.19 µM,"[2]; read-out: AVERAGE % INHIBITION HBsAg, COMPOUND 3 185.19 μM alone",-1.46%
same,inhibition at 555.56 µM,"[2]; read-out: AVERAGE % INHIBITION HBsAg, COMPOUND 3 555.56 μM alone",4.63%
same,EC50,[2]; read-out: Inhibitor EC50,7.79 µM
same,EC50,[3]; [4],8.85 µM
same,EC50,"[3]; 576 h, read-out: Inhibitor B EC50 HBeAg",8.58 µM
same,inhibition at 0.06173 µM,"[3]; read-out: AVERAGE % INHIBITION HBeAg, COMPOUND 3 61.73 nM alone",-11.3%
same,inhibition at 0.18519 µM,"[3]; read-out: AVERAGE % INHIBITION HBeAg, COMPOUND 3 185.19 nM alone",-16%
same,inhibition at 0.55556 µM,"[3]; read-out: AVERAGE % INHIBITION HBeAg, COMPOUND 3 555.56 nM alone",-5.39%
same,inhibition at 1.66667 µM,"[3]; read-out: AVERAGE % INHIBITION HBeAg, COMPOUND 3 1666.67 nM alone",2.34%
same,inhibition at 5 µM,"[3]; read-out: AVERAGE % INHIBITION HBeAg, COMPOUND 3 5000.00 nM alone",27.3%
same,inhibition at 61.73 µM,"[3]; read-out: AVERAGE % INHIBITION HBeAg, COMPOUND 3 61.73 μM alone",-11.1%
same,inhibition at 185.19 µM,"[3]; read-out: AVERAGE % INHIBITION HBeAg, COMPOUND 3 185.19 μM alone",-4.9%
same,inhibition at 555.56 µM,"[3]; read-out: AVERAGE % INHIBITION HBeAg, COMPOUND 3 555.56 μM alone",-1.02%
same,inhibition at 0.06859 µM,"[3]; read-out: AVERAGE % INHIBITION, TAF 0.00 nM, COMPOUND 3 68.59 nM",-5.05%
same,inhibition at 0.20576 µM,"[3]; read-out: AVERAGE % INHIBITION, TAF 0.00 nM, COMPOUND 3 205.76 nM",-6.33%
same,inhibition at 0.61728 µM,"[3]; read-out: AVERAGE % INHIBITION, TAF 0.00 nM, COMPOUND 3 617.28 nM",2.77%
same,inhibition at 1.85185 µM,"[3]; read-out: AVERAGE % INHIBITION, TAF 0.00 nM, COMPOUND 3 1851.85 nM",29.7%
same,inhibition at 5.55556 µM,"[3]; read-out: AVERAGE % INHIBITION, TAF 0.00 nM, COMPOUND 3 5555.56 nM",40.4%
same,EC50,[3]; read-out: Inhibitor EC50,8.85 µM

# Reference: US20220265817A1, “THERAPEUTIC COMPOSITIONS AND METHODS FOR TREATING HEPATITIS B” (priority 2017, published 2022)
